Data reported in patent EP2442784B1, “COMPOSITIONS AND METHODS FOR INHIBITING PAR2 ACTIVATION OF KERATINOCYTES” (THE PROCTER & GAMBLE COMPANY, priority 2010, dated 2012).

Target: T1, PAR-2 receptor (Homo sapiens, UniProt P55085)
T1 construct: host or cells: engineered cell line from DiscoveRx
T1 sequence (P55085 26-397): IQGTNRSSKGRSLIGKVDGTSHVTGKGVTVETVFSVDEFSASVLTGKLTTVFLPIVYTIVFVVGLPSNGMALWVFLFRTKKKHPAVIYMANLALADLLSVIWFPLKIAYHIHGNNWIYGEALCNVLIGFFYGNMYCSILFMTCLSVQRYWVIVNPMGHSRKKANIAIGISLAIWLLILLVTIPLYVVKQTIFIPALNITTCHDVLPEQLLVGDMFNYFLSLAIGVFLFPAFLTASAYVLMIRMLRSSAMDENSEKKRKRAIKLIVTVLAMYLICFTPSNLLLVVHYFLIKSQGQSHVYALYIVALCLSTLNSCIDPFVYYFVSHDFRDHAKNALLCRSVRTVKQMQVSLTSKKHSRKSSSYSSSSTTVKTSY
Assay: PAR-2 Inhibition Assay (beta arrestin recruitment / beta galactosidase complementation, luminescence; PAR2 activation by trypsin)
Assay type: cell-based
Settings: for PAR2 inhibitory effect (summary in words): over the dilution factors tested; for percent inhibition of PAR2 activation: activation by trypsin, triplicate
Text: PAR-2 Inhibition Assay - The assay principle relies on the recruitment of beta arrestin to the activated PAR-2 receptor resulting in the formation of an active beta galactosidase enzyme which can cleave a substrate causing a luminescent signal that can be quantitated. PAR-2 can be activated by either adding trypsin and also by adding SLIGRL peptide.
Cells expressing PAR-2 receptor coupled to the alpha fragment of beta galactosidase and expressing beta arrestin coupled to the beta fragment of beta galactosidase are obtained from DiscoveRx Corp., Freemont, CA. Cells are propagated in a culture medium of Dulbeccos Modified Eagle Medium supplemented with 10% heat-inactivated fetal bovine serum, 500 unit/mL penicillin, 500 ug/mL streptomycin, 800 ug/mL gentimicin, and 300 ug/mL hygromycin in T75 or T150 culture flasks (all media components available from Invitrogen Corp., Carlsbad, CA) in a CO2 incubator at 37°C. When cells reach approximately 80% confluency, the cells are detached from the flask using Cell Dissociation Buffer (available from Invitrogen Corp., Carlsbad, CA as item number 13151-014). The cells are counted using a hemocytometer and plated into 384 well plates at 10000 cells/well in 20 uL/well of Opti-MEM® media (available from Invitrogen Corp., Carlsbad, CA). The cells are cultured for 24 -48 hours.
To assay potential inhibitors of PAR2 activation by trypsin, each well is treated with 1 uL of the test material in water. Each test material is run in triplicate. The cells are incubated for 30 minutes in the CO2 incubator, after which 1 uL of trypsin is added (approximate 0.1 ug/uL). The cells are incubated for an hour in the CO2 incubator after which the cell lysis substrate solution (11 uL/well) is added. The lysis substrate solution is available in the PathHunter™ Detection Kit (catalogue #93-0001) from DiscoveRx Corp., Freemont, CA, in which the components are mixed in the following ratio: • Assay Buffer: Substrate 1: Substrate 2 = 19:5:1 The plates are briefly centrifuged (approximately 5 minutes) at 800 X g to remove bubbles and are then incubated at room temperature for 1 hr. Luminescence is read for each well on an Envision™ 2101 Multilabel Reader (available form PerkinElmer, Inc., Boston, MA). The range is determined by wells with solvent control + trypsin (high control) and by wells with solvent control and no trypsin (low control). The percent PAR2 inhibition of each treatment is calculated by the following formula of the luminescence signals: (1-([treatment luminescence-low control luminescence])/([high control luminescence-low control luminescence])) × 100 [formula] Statistics are done in Excel by Microsoft, Redmond, WA, using the T-test function, single tail with uneven distribution functions.
Using the assay outlined above, various concentrations and combinations of Laminaria Saccharina extract (e.g., Phlorogine), N-acyl Amino Acid (e.g., Sepiwhite), and vitamin B3 (e.g., niacinamide) were tested. Stock compositions of 1% Phlorogine (i.e., composition comprises approximately 0.025% - 0.01% Laminaria Saccharina extract), 1% Sepiwhite, 5% niacinamide, and combinations thereof are prepared and diluted prior to use. Test runs are performed at dilution factors of 0.045, 0.023, and 0.006. For clarity purposes, the 1% Sepiwhite composition diluted at a factor of 0.045 yields a test compositing comprising 0.045% Sepiwhite.

[1] = stock composition diluted at dilution factor 0.006
[2] = stock composition diluted at dilution factor 0.023
[3] = stock composition diluted at dilution factor 0.045 (e.g. 0.045% Sepiwhite), 100% = control without trypsin

C=CCCCCCCCCC(=O)N[C@@H](Cc1ccccc1)C(=O)O [1% Sepiwhite, N-undecylenoyl-L-phenylalanine]
PAR2 inhibitory effect (summary in words): inhibitory effect which is pronounced at higher dilutions | percent inhibition of PAR2 activation [1]: 14% | percent inhibition of PAR2 activation [2]: 35% | percent inhibition of PAR2 activation [3]: 53%

NC(=O)c1cccnc1 [5% Niacinamide, niacinamide]
PAR2 inhibitory effect (summary in words): inhibitory effect which is pronounced at higher dilutions | percent inhibition of PAR2 activation [1]: 5% | percent inhibition of PAR2 activation [2]: 14% | percent inhibition of PAR2 activation [3]: 20%
